Values quoted from earlier work, collected in patent US9610269B2, “Method of treating a disease condition susceptible to baclofen therapy” (SUN PHARMA ADVANCED RESEARCH COMPANY LTD., priority 2010, dated 2017).

Experiments:
[1] = in vivo
[2] = at the actual pH values

Plasma elimination half-life [1]: approximately 3.5 hours
fraction metabolized in the liver [1]: 15%
serum concentration considered an effective concentration [1]: ≥ 80 ng/mL
lipophilicity of the drug [2]: negligible
Compound: NCC(CC(=O)O)c1ccc(Cl)cc1 (stereo not shown) [baclofen, 4-amino-3-(p-chlorophenyl) butyric acid]
